Test results reported in patent US20120128630A1, “1-(6 MEMBERS AZO-HETEROCYCLIC)-PYRROLIN-2-ONE COMPOUNDS AS INHIBITORS OF HEPATITIS C NS5B POLYMERASE, THE PHARAMACEUTICAL COMPOSITION THEREOF AND THEIR THERAPEUTIC USE” (priority 2009, published 2012).
pEC50: −log10 of the molar value. Like-named read-outs stand apart in the source and are kept apart here.

Target: T1, HCV NS5B genotype 1b (Hepatitis C virus genotype 1b, UniProt Q9WMX2)
T1 construct: The protein was expressed with a 21 amino acid C-terminal deletion to remove transmembrane domain; expressed in transfected cells; host or cells: Huh-7
Test: 3D-SCREEN assay (NS5B 3D-Screen platform, luciferase reporter gene)
Assay type: cell-based
From the text: cDNA encoding HCV NS5B genotype 1b, was cloned in frame with Gal4-DNA Binding Domain. The protein was expressed with a 21 amino acid C-terminal deletion to remove transmembrane domain. Expression of NS5BΔ21/Gal4 DBD fusion protein was under control of SV40 early promoter. 3D-Sensor peptide was cloned in frame with VP16 activation domain. Expression of 3D-Sensor/VP16 AD fusion protein was under control of CMV promoter. Expression of the firefly luciferase reporter gene was inducible by the [Target protein/conformation sensitive peptide/VP16AD] complex.
It is a single-target, cell based assay. Briefly, expression of a reporter gene depends on the interaction of a short peptide, thereafter named 3D-Sensor, and native conformation of the target protein. Whenever the conformation of the target protein is modified, interaction between 3D-sensor and target protein is disrupted and reporter gene is not expressed anymore. Conformation modifiers are identified by loss of expression of reporter gene. NS5B 3D-Screen platform was generated in Huh-7 cell lines by transient transfection of three expression vectors encoding respectively
(i) HCV NS5BΔ21/Gal4-DBD fusion protein
(ii) the 3D-sensor peptide I4/VP16 fusion protein
(iii) the firefly luciferase reporter gene
Huh-7 cells were dissociated the day before transfection and seeded in T175 flasks at a density of 10^7 cells in 30 ml culture medium. Equimolar ratios of vectors were transfected in cell according to optimized jetPEI transfection protocol (PolyPlus Transfection, Illkirch, France) and 10 μg total DNA/10^6 cells. Transfection was performed for 2 hours at 37° C. and 5% CO2 in a humidified atmosphere. After two hours cells were dissociated and seeded in 96 wells plates at a density of 25,000 cells per well and 90 μl culture medium. 10 μl of compounds to be tested were added 2 hours after seeding. Final concentration of DMSO was 1%. Cells were incubated in the presence of compounds for 24 hours after which expression of firefly luciferase reporter gene was quantified. Briefly, culture medium was removed and cells were lysed by addition of 100 μl of lysis buffer containing 125 mM Tris Phosphate ph 7.8, 10 mM EDTA, 5 mM DTT, 50% glycerol and 5% Triton. Plates were vortexed 10 min at 1300 rpm. Cell lysat was transferred in OpaqueWhite Assay 96 well Flat Bottom plates. 100 μl of luciferin solution 1× were added to each well. Luciferin solution contained 40 mM Tris Phosphate ph 7.8, 0.2 mM EDTA, 67 mM DTT, 2.14 mM MgCl2, 5.4 mM MgSO4, 4.7×10^−4 M luciferin, 5.3×10^−4 M ATP and 2.7×10^−4 M Acetyl co enzyme A. Luminescence was immediately measured with Berthold Microlumat Plus LB 96V luminometer with an integration of 0.5 sec. Inhibition was calculated using the formula: % inhibition=(1−(read/average max))*100. Average max=signal in absence of compound

[1] = EC50_3DS_NS5B, Table 1, 3D-SCREEN assay results, Huh-7 cells, 24 hours with compound, firefly luciferase reporter
[2] = EC50_3DS_NS5B, Table 2, titled Replicon assay results

Compound | pEC50 [1] | pEC50 [2] | also measured
5-[4-(1,1-difluoro-ethoxy)-phenyl]-3-hydroxy-4-(4-isopropyl-benzoyl)-1-(6-methyl-pyridazin-3-yl)-1,5-dihydro-pyrrol-2-one [Example 174] |  |  | pEC50 (Table 2, titled Replicon assay results, read-out: EC50_3DS_NS5B): > 5.00
CON=C(C1=C(O)C(=O)N(c2ccc(C)nn2)C1c1ccc(C(C)C)cc1)c1ccc(C)cc1 (mixture of isomers) [Example 53, 3-hydroxy-5-(4-isopropyl-phenyl)-4-(methoxyimino-p-tolyl-methyl)-1-(6-methyl-pyridazin-3-yl)-1,5-dihydro-pyrrol-2-one] | 5.30 |  | 
Cc1ccc(C(=O)C2=C(O)C(=O)N(c3ccc(C#N)cn3)C2c2ccc(C(C)C)cc2)cc1 (stereo not shown) [Example 7, 6-[3-hydroxy-5-(4-isopropyl-phenyl)-4-(4-methyl-benzoyl)-2-oxo-2,5-dihydro-pyrrol-1-yl]-nicotinonitrile] | 5.05 |  | 
Cc1ccc(C(=O)C2=C(O)C(=O)N(c3cccnn3)C2c2ccc(C(C)C)cc2)cc1 (stereo not shown) [Example 9, 3-hydroxy-5-(4-isopropyl-phenyl)-4-(4-methyl-benzoyl)-1-pyridazin-3-yl-1,5-dihydro-pyrrol-2-one] | 5.15 |  | 
COc1ccc(C(=O)C2=C(O)C(=O)N(c3ccc(C)nn3)C2c2ccc(C(C)(C)C)cc2)cc1 (stereo not shown) [Example 10, 5-(4-tert-butyl-phenyl)-3-hydroxy-4-(4-methoxy-benzoyl)-1-(6-methyl-pyridazin-3-yl)-1,5-dihydro-pyrrol-2-one] | 5.52 |  | 
Cc1ccc(C(=O)C2=C(O)C(=O)N(c3ccc(C)nn3)C2c2cccc(C(C)C)c2)cc1 (stereo not shown) [Example 29, 3-hydroxy-5-(3-isopropyl-phenyl)-4-(4-methyl-benzoyl)-1-(6-methyl-pyridazin-3-yl)-1,5-dihydro-pyrrol-2-one] | 5.22 |  | 
Cc1ccc(N2C(=O)C(O)=C(C(=O)c3ccc(N(C)C)cc3)C2c2ccc(C(C)C)cc2)nn1 (stereo not shown) [Example 35, 4-(4-dimethylamino-benzoyl)-3-hydroxy-5-(4-isopropyl-phenyl)-1-(6-methyl-pyridazin-3-yl)-1,5-dihydro-pyrrol-2-one] | 5.52 |  | 
Cc1ccc(C(=O)C2=C(O)C(=O)N(c3ccc(C)nn3)C2c2ccc(-c3ccccc3)cc2)cc1 (stereo not shown) [Example 42, 5-biphenyl-4-yl-3-hydroxy-4-(4-methyl-benzoyl)-1-(6-methyl-pyridazin-3-yl)-1,5-dihydro-pyrrol-2-one] | 5.40 |  | 
Cc1ccc(N2C(=O)C(O)=C(C(=O)c3ccc(C(C)C)cc3)C2c2ccc(C(C)C)cc2)nc1 (stereo not shown) [Example 44, 3-hydroxy-4-(4-isopropyl-benzoyl)-5-(4-isopropyl-phenyl)-1-(5-methyl-pyridin-2-yl)-1,5-dihydro-pyrrol-2-one] | 5.70 |  | 
Cc1ccc(N2C(=O)C(O)=C(C(=O)c3ccc(C(C)C)cc3)C2c2ccc(-c3ccccc3)cc2)nn1 (stereo not shown) [Example 45, 5-biphenyl-4-yl-3-hydroxy-4-(4-isopropyl-benzoyl)-1-(6-methyl-pyridazin-3-yl)-1,5-dihydro-pyrrol-2-one] | 5.40 |  | 
Cc1ccc(N2C(=O)C(O)=C(C(=O)c3ccc(N(C)C)cc3)C2c2ccc(OC(F)(F)F)cc2)nn1 (stereo not shown) [Example 49, 4-(4-dimethylamino-benzoyl)-3-hydroxy-1-(6-methyl-pyridazin-3-yl)-5-(4-trifluoromethoxy-phenyl)-1,5-dihydro-pyrrol-2-one] | 6.00 |  | 
Cc1ccc(N2C(=O)C(O)=C(C(=O)c3ccc(C(F)(F)F)cc3)C2c2ccc(C(F)(F)F)cc2)nn1 (stereo not shown) [Example 95, 3-hydroxy-1-(6-methyl-pyridazin-3-yl)-4-(4-trifluoromethyl-benzoyl)-5-(4-trifluoromethyl-phenyl)-1,5-dihydro-pyrrol-2-one] |  | > 5.00 | 
Cc1ccc(N2C(=O)C(O)=C(C(=O)c3ccc(OC(F)(F)F)cc3)C2c2ccc(C(C)C)cc2)cn1 (stereo not shown) [Example 97, 5-[3-hydroxy-5-(4-isopropyl-phenyl)-2-oxo-4-(4-trifluoromethoxy-benzoyl)-2,5-dihydro-pyrrol-1-yl]-2-methyl-pyridinium; chloride] |  |  | pEC50 (read-out: EC50_3DS_NS5B, Table 2, titled Replicon assay results): > 5.00
COc1ccc(C(=O)C2=C(O)C(=O)N(c3ccc(C)nn3)C2c2ccc(OC(C)C)cc2)cc1 (stereo not shown) [Example 100, 3-hydroxy-5-(4-isopropoxy-phenyl)-4-(4-methoxy-benzoyl)-1-(6-methyl-pyridazin-3-yl)-1,5-dihydro-pyrrol-2-one] |  | > 5.00 | 
Cc1ccc(N2C(=O)C(O)=C(C(=O)c3ccc(OC(C)C)cc3)C2c2ccc(OC(C)C)cc2)nn1 (stereo not shown) [Example 109, 3-hydroxy-4-(4-isopropoxy-benzoyl)-5-(4-isopropoxy-phenyl)-1-(6-methyl-pyridazin-3-yl)-1,5-dihydro-pyrrol-2-one] |  | > 5.00 | 
Cc1ccc(N2C(=O)C(O)=C(C(=O)c3ccc(C(C)C)cc3)C2c2ccc(CC(C)C)cc2)nn1 (stereo not shown) [Example 136, 3-hydroxy-5-(4-isobutyl-phenyl)-4-(4-isopropyl-benzoyl)-1-(6-methyl-pyridazin-3-yl)-1,5-dihydro-pyrrol-2-one] |  | > 5.00 | 
Cc1ccc(N2C(=O)C(O)=C(C(=O)c3ccc(C(C)C)cc3)C2c2ccc(Br)cc2)nn1 (stereo not shown) [Example 172, 5-(4-bromo-phenyl)-3-hydroxy-4-(4-isopropyl-benzoyl)-1-(6-methyl-pyridazin-3-yl)-1,5-dihydro-pyrrol-2-one] |  | > 6.00 | 
Cc1ccc(N2C(=O)C(O)=C(C(=O)c3ccc(C(C)C)cc3)C2c2ccc(SC(C)C)cc2)nn1 (stereo not shown) [Example 173, 3-hydroxy-4-(4-isopropyl-benzoyl)-5-(4-isopropylsulfanyl-phenyl)-1-(6-methyl-pyridazin-3-yl)-1,5-dihydro-pyrrol-2-one] |  | > 6.00 | 
Cc1ccc(N2C(=O)C(O)=C(C(=O)c3ccc(C#N)cc3)C2c2ccc(OC(F)(F)F)cc2)nn1 (stereo not shown) [Example 176, 4-[4-hydroxy-1-(6-methyl-pyridazin-3-yl)-5-oxo-2-(4-trifluoromethoxy-phenyl)-2,5-dihydro-1H-pyrrole-3-carbonyl]-benzonitrile] |  | > 5.00 | 
Cc1ccc(N2C(=O)C(O)=C(C(=O)c3ccc(N4CCCC4)cc3)C2c2ccc(OC(C)(F)F)cc2)nn1 (stereo not shown) [Example 183, 5-[4-(1,1-difluoro-ethoxy)-phenyl]-3-hydroxy-1-(6-methyl-pyridazin-3-yl)-4-(4-pyrrolidin-1-yl-benzoyl)-1,5-dihydro-pyrrol-2-one] |  | > 5.00 | 
Cc1ccc(N2C(=O)C(O)=C(C(=O)c3ccc(N4CCCC4)cc3)C2c2ccc(OC(F)(F)F)cc2)nn1 (stereo not shown) [Example 184, 3-hydroxy-1-(6-methyl-pyridazin-3-yl)-4-(4-pyrrolidin-1-yl-benzoyl)-5-(4-trifluoromethoxy-phenyl)-1,5-dihydro-pyrrol-2-one] |  | > 5.00 | 
Cc1ccc(N2C(=O)C(O)=C(C(=O)c3ccc(C(C)C)cc3)C2c2ccc(Oc3cc(C)on3)cc2)nn1 (stereo not shown) [Example 185, 3-hydroxy-4-(4-isopropyl-benzoyl)-5-[4-(5-methyl-isoxazol-3-yloxy)-phenyl]-1-(6-methyl-pyridazin-3-yl)-1,5-dihydro-pyrrol-2-one] |  | > 5.00 | 
Cc1ccc(N2C(=O)C(OC(=O)C(C)C)=C(C(=O)c3ccc(C(C)C)cc3)C2c2ccc(OC(F)(F)F)cc2)nn1 (stereo not shown) [Example 186, Isobutyric acid 4-(4-isopropyl-benzoyl)-1-(6-methyl-pyridazin-3-yl)-2-oxo-5-(4-trifluoromethoxy-phenyl)-2,5-dihydro-1H-pyrrol-3-yl ester] |  | > 6.00 | 
Cc1ccc(N2C(=O)C(O)=C(C(=O)c3ccc(C(C)C)cc3)C2c2ccc(C(C)(F)F)nc2)nn1 (stereo not shown) [Example 187, 5-[6-(1,1-difluoro-ethyl)-pyridin-3-yl]-3-hydroxy-4-(4-isopropyl-benzoyl)-1-(6-methyl-pyridazin-3-yl)-1,5-dihydro-pyrrol-2-one] |  | > 6.00 | 
Cc1ccc(N2C(=O)C(O)=C(C(=O)c3ccc(C(C)C)cc3)[C@@H]2c2ccc(C(F)(F)F)nc2)nn1 [Example 194, 3-hydroxy-4-(4-isopropyl-benzoyl)-1-(6-methyl-pyridazin-3-yl)-5(S)-(6-trifluoromethyl-pyridin-3-yl)-1,5-dihydro-pyrrol-2-one] |  | > 5.00 | 
